Like-named read-outs stand apart in the source and are kept apart here.
How the values were obtained:
harmful plants = conditions: known from Y. Yamaji et al. 2006; cited from earlier work
[1] = tested on: CHEAL (Chenopodium album); assay: post-emergence greenhouse test; type: in vivo; conditions: for inhibition at 6.25 g/ha / inhibition at 25 g/ha / inhibition at 50 g/ha: Chenopodium album, read-out: observed % activity; for inhibition at 6.25 g/ha: use rate 6.25 g ai/ha; for inhibition at 25 g/ha: use rate 25 g ai/ha; for inhibition at 50 g/ha: use rate 50 g ai/ha
How it was run: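 Plants grown to 3–20 cm, then sprayed post-emergence with herbicides, solo or mixed, with or without safener, in water as carrier. Damage scored visually 0–100% versus untreated controls at 8 and/or 20 days after treatment.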

## Cn1nc(C(F)(F)F)c(CS(=O)(=O)C2=NOC(C)(C)C2)c1OC(F)F [pyroxasulfone, 3-[5-(difluoromethoxy)-1-methyl-3-(trifluoromethyl)pyrazol-4-ylmethylsulfonyl]-4,5-dihydro-5,5-dimethyl-1,2-oxazole]
Harmful plants
  post-emergence activity: poor
[1]; 6.25 g ai/ha, 8 DAT
  observed activity in % destruction: 0%
[1]; 6.25 g ai/ha, 20 DAT
  observed activity in % destruction: 0%
[1]; 12.5 g ai/ha, 8 DAT
  observed activity in % destruction: 20%
[1]; 12.5 g ai/ha, 20 DAT
  observed activity in % destruction: 30%
[1]; 25 g ai/ha, 8 DAT
  observed activity in % destruction: 35%
[1]; 25 g ai/ha, 20 DAT
  observed activity in % destruction: 30%
[1]; 50 g ai/ha, 8 DAT
  observed activity in % destruction: 45%
[1]; 50 g ai/ha, 20 DAT
  observed activity in % destruction: 60%
[1]; 192 h, 8 DAT
  inhibition at 6.25 g/ha: 0%
  inhibition at 25 g/ha: 35%
  inhibition at 50 g/ha: 45%
[1]; 480 h, 20 DAT
  inhibition at 6.25 g/ha: 0%
  inhibition at 25 g/ha: 30%
  inhibition at 50 g/ha: 60%

Reference: patent US20110015067A1, “Herbicidal Compositions Comprising Pyroxasulfone” (BASF SE, priority 2008, published 2011)
